Entries after “also recorded” stand apart in the source; their conditions may differ. Marks after values point to notes of the source that are not given here.
Experiments:
ruminal bacteria = test: Bacterial DNA concentration by qPCR; format: cell-based, calves; conditions: 12 hours of incubation
[1] = tested on: "in vitro" ruminal fluid cultures; test: Volatile fatty acid concentration and molar proportions in "in vitro" ruminal fluid cultures; format: cell-based, calves; conditions: for % Acetate, molar ratio, average (μ) / % Butyrate, molar ratio, average (μ) / % Propionate, molar ratio, average (M) / VFA concentration, average (μ): average over incubation times
[2] = tested on: methanogenic (archea) populations; test: Methane production in "in vitro" rumen fluid culture; format: cell-based, calves; design: Average methane production / Accumulated methane production / Methane production / Cumulative methane production: unit not given here; conditions: Exp 1
Outline: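 Rumen fluid from cannulated calves on a 90:10 concentrate ration incubated anaerobically at 39° C with flavonoids, 600 mg concentrate and 60 mg barley straw substrate in 10 ml rumen fluid plus 40 ml incubation medium. Gas pressure read at 2–48 h; triplicates in two batches, with methane share of total biogas assessed.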

[3] = tested on: "in vitro" ruminal fluid culture; test: Lactate concentration in "in vitro" ruminal fluid culture; format: cell-based, calves; conditions: 12 hours of incubation
[4] = tested on: "in vitro" ruminal fluid cultures; test: Ammonia (N-NH3) concentration in "in vitro" ruminal fluid cultures; format: cell-based, calves; conditions: for N-NH3 concentration, average (M): average over incubation times
Selenomonas ruminantium = test: qPCR relative quantification of Selenomonas ruminantium; format: cell-based; conditions: 12 hours of incubation
Megasphaera elsdenii = test: qPCR relative quantification of Megasphaera elsdenii; format: cell-based; conditions: 12 hours of incubation
Streptococcus bovis = test: qPCR relative quantification of Streptococcus bovis; format: cell-based; conditions: 12 hours of incubation
[5] = tested on: "in vitro" ruminal fluid cultures; test: Ammonia (N-NH3) concentration in "in vitro" ruminal fluid cultures; format: cell-based, calves; conditions: 72 h
[6] = tested on: "in vitro" rumen fluid culture; test: Biogas production in "in vitro" rumen fluid culture (pressure meter); format: cell-based, calves; design: Average biogas production / Cumulative biogas production / Biogas production: unit not given here; conditions: Exp 1; for Average biogas production: average over doses and incubation times
[7] = average over doses and incubation times
[8] = average over doses and incubation times, listed as neoeriocitrin

C[C@@H]1O[C@@H](O[C@H]2[C@H](Oc3cc(O)c4c(c3)O[C@H](c3ccc(O)c(O)c3)CC4=O)O[C@H](CO)[C@@H](O)[C@@H]2O)[C@H](O)[C@H](O)[C@H]1O [Neoeriocitrin]
Bacteria DNA (ruminal bacteria): 13.14 ^a μg/ml
% Acetate, molar ratio ([1]; 0 h): 62.51 mol/100 mol
% Butyrate, molar ratio ([1]; 0 h): 9.07 mol/100 mol
% Propionate, molar ratio ([1]; 0 h): 20.03 mol/100 mol
A/P rate (acetate/propionate) ([1]; 0 h): 3.12
VFA concentration ([1]; 0 h (initial constant value)): 13.78 mmol/L
% Acetate, molar ratio ([1]; 12 h): 55.73 mol/100 mol
% Butyrate, molar ratio ([1]; 12 h): 11.84 mol/100 mol
% Propionate, molar ratio ([1]; 12 h): 26.77 mol/100 mol
A/P rate (acetate/propionate) ([1]; 12 h): 2.09
VFA concentration ([1]; 12 h): 39.75 mmol/L
% Acetate, molar ratio ([1]; 72 h): 56.21 mol/100 mol
% Butyrate, molar ratio ([1]; 72 h): 11.79 mol/100 mol
% Propionate, molar ratio ([1]; 72 h): 24.39 mol/100 mol
A/P rate (acetate/propionate) ([1]; 72 h): 2.31
VFA concentration ([1]; 72 h): 53.75 mmol/L
% Acetate, molar ratio, average (μ) [1]: 58.15 mol/100 mol
% Butyrate, molar ratio, average (μ) [1]: 10.90 ^b mol/100 mol
% Propionate, molar ratio, average (M) [1]: 23.73 ^a mol/100 mol
VFA concentration, average (μ) [1]: 35.76 mmol/L
% Propionate, molar ratio, average (M) ([1]; listed as neoeritrocin): 23.7 mol/100 mol
Dosage effect on methane proportion of biogas ([2]; 500 vs. 200 mg/kg DM): tended to depress methane production
Accumulated methane production ([2]; 12 h): 29.65
Proportion of methane in the produced biogas ([2]; 12 h): 14.00
Accumulated methane production ([2]; 24 h): 37.03
Proportion of methane in the produced biogas ([2]; 24 h): 15.75
Accumulated methane production ([2]; 48 h): 41.74
Proportion of methane in the produced biogas ([2]; 48 h): 16.33
Accumulated methane production ([2]; 72 h): 45.18
Proportion of methane in the produced biogas ([2]; 72 h): 18.19
Average methane production [2, 7]: 38.40^a
Proportion of methane in the produced biogas [2, 7]: 16.07^a
Average methane production [2, 8]: increased
Proportion of methane in the produced biogas [2, 8]: significantly increased; also recorded: increased the methane proportion
Methane production ([2]; dose 1, 0.2 g/kg DM): 39.51
Proportion of methane in the produced biogas ([2]; dose 1, 0.2 g/kg DM): 15.96
Methane production ([2]; dose 2, 0.5 g/kg DM): 37.28
Proportion of methane in the produced biogas ([2]; dose 2, 0.5 g/kg DM): 16.17
Lactate [3]: 122.5 mg/L
N-NH3 concentration ([4]; 0 h (initial constant value)): 149.99 mg/L
N-NH3 concentration ([4]; 12 h): 186.19 mg/L
N-NH3 concentration, average (M) [4]: 227.84 mg/L
Relative Quantification 2^(ΔΔCt) S. ruminantium (Selenomonas ruminantium): 0.79
Relative Quantification 2^(ΔΔCt) M. elsdenii (Megasphaera elsdenii): 0.76 ^a
Relative Quantification 2^(ΔΔCt) S. bovis (Streptococcus bovis): 0.62
N-NH3 concentration [5]: 347.34 mg/L
Cumulative biogas production ([6]; 12 h incubation): 211.78
Cumulative biogas production ([6]; 24 h incubation): 259.11
Cumulative biogas production ([6]; 48 h incubation): 288.43
Cumulative biogas production ([6]; 72 h incubation): 307.80
Biogas production ([6]; dose 1, 0.2 g/kg DM): 277.08
Biogas production ([6]; dose 2, 0.5 g/kg DM): 256.47

C[C@@H]1O[C@@H](O[C@H]2[C@H](Oc3cc(O)c4c(c3)O[C@H](c3ccc(O)cc3)CC4=O)O[C@H](CO)[C@@H](O)[C@@H]2O)[C@H](O)[C@H](O)[C@H]1O [Naringin, naringin]
Bacteria DNA (ruminal bacteria): 22.15 ^ab μg/ml
% Acetate, molar ratio ([1]; 0 h): 62.51 mol/100 mol
% Butyrate, molar ratio ([1]; 0 h): 9.07 mol/100 mol
% Propionate, molar ratio ([1]; 0 h): 20.03 mol/100 mol
A/P rate (acetate/propionate) ([1]; 0 h): 3.12
VFA concentration ([1]; 0 h (initial constant value)): 13.78 mmol/L
% Acetate, molar ratio ([1]; 12 h): 53.70 mol/100 mol
% Butyrate, molar ratio ([1]; 12 h): 10.47 mol/100 mol
% Propionate, molar ratio ([1]; 12 h): 30.00 mol/100 mol
A/P rate (acetate/propionate) ([1]; 12 h): 1.79
VFA concentration ([1]; 12 h): 35.23 mmol/L
% Acetate, molar ratio ([1]; 72 h): 55.34 mol/100 mol
% Butyrate, molar ratio ([1]; 72 h): 10.33 mol/100 mol
% Propionate, molar ratio ([1]; 72 h): 26.75 mol/100 mol
A/P rate (acetate/propionate) ([1]; 72 h): 2.07
VFA concentration ([1]; 72 h): 51.03 mmol/L
% Acetate, molar ratio, average (μ) [1]: 57.18 mol/100 mol
% Butyrate, molar ratio, average (μ) [1]: 9.96 ^ab mol/100 mol
% Propionate, molar ratio, average (M) [1]: 25.59 ^b mol/100 mol
VFA concentration, average (μ) [1]: 33.35 mmol/L
% Propionate, molar ratio, average (M) ([1]; listed as naringin): improved
Accumulated methane production ([2]; 12 h): 23.38
Proportion of methane in the produced biogas ([2]; 12 h): 12.04
Accumulated methane production ([2]; 24 h): 29.46
Proportion of methane in the produced biogas ([2]; 24 h): 14.28
Accumulated methane production ([2]; 48 h): 34.93
Proportion of methane in the produced biogas ([2]; 48 h): 16.14
Accumulated methane production ([2]; 72 h): 38.24
Proportion of methane in the produced biogas ([2]; 72 h): 16.97
Proportion of methane in the produced biogas [2, 7]: 14.86^b
Average methane production ([2]; average over doses and incubation times, listed as Naringina): 31.50^b
Average methane production ([2]; average over doses and incubation times, listed as naringin): not modified
Methane production ([2]; dose 1, 0.2 g/kg DM): 32.28
Proportion of methane in the produced biogas ([2]; dose 1, 0.2 g/kg DM): 14.87
Methane production ([2]; dose 2, 0.5 g/kg DM): 30.73
Proportion of methane in the produced biogas ([2]; dose 2, 0.5 g/kg DM): 14.85
Lactate [3]: 77.8 mg/L
N-NH3 concentration ([4]; 0 h (initial constant value)): 149.99 mg/L
N-NH3 concentration ([4]; 12 h): 172.47 mg/L
N-NH3 concentration, average (M) [4]: 219.57 mg/L
Relative Quantification 2^(ΔΔCt) S. ruminantium (Selenomonas ruminantium): 0.74
Relative Quantification 2^(ΔΔCt) M. elsdenii (Megasphaera elsdenii): 1.26 ^c
Relative Quantification 2^(ΔΔCt) S. bovis (Streptococcus bovis): 0.48
N-NH3 concentration [5]: 336.25 mg/L
Cumulative biogas production ([6]; 12 h incubation): 193.90
Cumulative biogas production ([6]; 24 h incubation): 236.91
Cumulative biogas production ([6]; 48 h incubation): 270.98
Cumulative biogas production ([6]; 72 h incubation): 290.91
Average biogas production [6]: 248.17^bc
Average biogas production ([6]; listed as naringin): did not change
Biogas production ([6]; dose 1, 0.2 g/kg DM): 251.15
Biogas production ([6]; dose 2, 0.5 g/kg DM): 245.19
